# Assays:
# oral cavity = test: Chili-pepper sauce test (oral cavity); assay type: in vivo, human; parameters: scale not given here; conditions: Table 6; grades 0, +, ++ without key
# Excerpt: (§1) Cooling agents have been assayed in various ways depending on intended use. For example, for the skin the test substance can be applied on philtrum skin, using descriptions of coolness on a scale of 0 to 3. For the ocular surface, the active ingredient can be applied to the closed eyelids using a wipe. In the oral cavity, drug applications are on the posterior dorsal surface of the tongue. For the oropharyngeal surface, the cooling agent may be applied as an orally disintegrating tablet. The ability of a cooling agent to antagonize a noxious stimuli may also be tested, using nociception from citric acid or chili pepper sauce. Responses are usually measured using a Visual Analog Scale with a numerical rating. For nasal responses, however, such procedures have not been standardized. Some endpoints to consider are open and comfortable breathing, the presence or absence of sniffles, and the secretion of phlegm.
# philtrum skin = test: Cooling duration bioassay on philtrum skin; assay type: in vivo, human
# Excerpt: (§2) FIG. 1. Comparison of cooling duration of various p-menthanecarboxamide analogs on philtrum skin versus ocular margins. The philtrum skin is keratinized, but the ocular margins are not. The test substances numbered 1 to 11 are: D-Ala-OiPr, Gly-OiPr, D-Ala-OEt, D-Ala-OMe, D-Ala-GlynPr, GlynPr, D-Ala-OnBu, GlynBu, GlyOEt, L-Ala-OEt, and N-Me-D-Ala-OEt, respectively. Two outliers (1 and 2) were identified as preferred embodiments because they preferentially cool the ocular margins. The nasal cavity surfaces like the ocular margins are not keratinized.
# as §1
# ocular margins = test: Cooling duration bioassay on eyelids/ocular margins; assay type: in vivo, human
# Excerpt: as §2, §1
# ostiomeatal complex [1] = test: Case studies: nebulized cooling agent in subjects with rhinitis and rhinosinusitis; assay type: in vivo, human; conditions: NasoNeb delivery in subjects with rhinosinusitis
# Excerpt: Eight subjects with rhinitis and rhinosinusitis volunteered to test cooling agents delivered with the NasoNeb® nebulizer (FIG. 3). The results were clear, robust, and evident. No statistical analysis was necessary. In a 3 to 5-day course of nebulization t.i.d., all subjects reported the ability to manage and control stuffed-up breathing in their activities. All reported comfortable sleep. The sounds of sniffling and congestion of the nose (“sniffles”), snorting, or gurgling were still present, but to a lesser degree. The subject felt it was easier to blow out liquids from the nasal cavity onto a tissue, and the volume and frequency of blowing decreased. Viscous yellow mucus was less in volume and density. The number of wipes deposited daily into a waste basket decreased by >50%. The subjects-were cheerful and enthusiastic because nasal discomfort was under control. As one subject remarked: “The stuffed-up nose problem is now history!” Severat of these cases are reported below as “Case Studies.”
# The subject was given a NasoNeb® nebulizer (unavailable in China) and five individual bottles containing 15 mL of a 1% GlyOiPr solution (suspended in 2% Tween 80, 5% ethanol, and 92% water). They were shown how to load the NasoNeb canister with about 2 mL of liquid and activate the device for a 3-second dose into each nostril. The recommended dosage was three times a day, starting in the morning and at about 6-hour intervals, and for five days.
# The subject agreed to using the NasoNeb nebulizer with a cooling agent. They were given a NasoNeb nebulizer and three bottles, each containing 15 ml of a 1% GlyOiPr solution (suspended in 2% Tween 80, 5% ethanol, and 92% water). They were shown how to load the NasoNeb canister with about 2 mL of liquid and activate the device for a 3-second dose into each nostril. The recommended dosage was three times a day, starting in the morning and at about 6-hour intervals, and for five days. After a 5-day trial, the subject noted a significant improvement in sleep and comfortable breathing. […] Their headaches were gone, and their appetite improved. They were advised to continue using the Nebulizer/coolant for another week and then on an as-needed basis. Their family has noticed that the subject has become less withdrawn, more engaging, and interested in their surroundings.
# The subject volunteered for a trial with GlyOiPr. They were given a NasoNeb® machine and a plastic squeeze bottle containing 50 mL of GlyOiPr at 3 mg/mL suspended in 1% ethanol/2% polysorbate 80. They learned how to load the canister and activate the pump. Then, they were instructed to rinse their nose thoroughly first thing in the morning and then use the Nebulizer at 5 sec per nostril to deliver the solution. The procedure was to be repeated at 2 hours and 5 hours later to total three daily activations. The subject was interviewed after dosing for three days. They said breathing was much easier at night after the dosing, and they slept well. Nasal secretions were still present but less in volume. […] They were encouraged to use the Nebulizer as needed but not to exceed three daily doses. Three weeks after the start of the experiment, they reported that they were in complete control of their rhinitis. They would do a single dose at night before sleep and one in the morning when needed. They no longer felt congested, and the headaches were gone. The slimy phlegm in the nostrils was gone, and crusting was absent. Their nose felt clean. Their social life improved.
# Their main complaint was episodes at night when they would wake up and not be able to breathe comfortably. Sleep apnea and lung disorders were ruled out, and the diagnosis was rhinosinusitis. This was confirmed by a computerized tomography scan and endoscopic examination by a qualified ENT specialist. They agreed to test the preferred embodiments GlyOnPr, GlyOiPr, D-Ala-OnPr, and D-Ala-OiPr systematically, one after the other.
# nasal cavity = test: Nebulizer screening of TRPM8 agonists for sensations in the nasal cavity; assay type: in vivo, human; conditions: NasoNeb nebulizer; for Sensory effects after delivery into the nasal cavity: 3 to 5 sec per nostril
# Protocol: Formulations for nebulization with NasoNeb® used a standard recipe of (Table 8): 1% of the active ingredient (1 to 10 mg/mL), 2% Tween 80 (Polysorbate 80), 1 to 5% ethanol, and made up to 100% with water. The mixture is centrifuged in a FlackTek, Inc., Speedmixer for at least 10 min at 3000 rpm. The Speedmixer spins the sample in 3 dimensions. The result is a white homogeneous liquid suspension with some of the solids now dissolved. For dosing, ˜2 to 3 mL is loaded into the canister of the nebulizer. The nebulizer nozzle tip is placed in the nostril and activated by pressing a button for 3 to 5 sec using a clock timer. […] For D-Ala-OiPr a 5-sec activation will deliver 2*0.73 mL*2 mg/ml, or a total dose of 3 mg per nose. The nasal cavity is relatively tolerant to exogenous agents with irritant properties, as many rinses are used for rhinitis and sinusitis. For some p-menthanecarboxamide analogs, a 2% (20 mg/mL) solution is possible and contemplated. An ideal agent reproduces a comfortable cooling or sensations of negative heat flux in the nasal cavity. […] Heat flux refers to the rate of heat transfer per unit area. The sinonasal cavity mucosa differs from philtrum skin and ocular margins in histology, so the choice of the right molecule must be made by experiment. The TRPM8 agonists were chosen for screening using a nebulizer for delivery. The NasoNeb system is powerful and effective for the OMC (FIG. 3). The delivery time per nostril in three to five seconds. […] These parameters were estimated in the initial trials: • Onset and offset of cooling sensations in the nasal cavity. • The intensity and quality of the cooling sensations in the nasal cavity. • Presence of effects such as sneezing or cough after dosing. • Degree of nasal stuffiness on a scale of 0 to 5. • Degree of rhinorrhea and phlegm in nasal secretions. • Questions regarding comfort and sleep at night.
# oropharyngeal surface = test: Bioassay on oropharyngeal surface; assay type: in vivo, human; conditions: Table 7; grades 0, ++ without key
# Excerpt: as §1
# [2] = human volunteers; cited from earlier work
# hTRPM8 channel = biological target: T1, hTRPM8 channel (Homo sapiens, UniProt Q7Z2W7); test: TRPM8 receptor assay, calcium entry (Fluo-8, FLIPR) in transfected CHO cells; assay type: cell-based; conditions: FIG. 5
# T1 construct: host or cells: CHO cells
# T1 sequence (Q7Z2W7 whole entry): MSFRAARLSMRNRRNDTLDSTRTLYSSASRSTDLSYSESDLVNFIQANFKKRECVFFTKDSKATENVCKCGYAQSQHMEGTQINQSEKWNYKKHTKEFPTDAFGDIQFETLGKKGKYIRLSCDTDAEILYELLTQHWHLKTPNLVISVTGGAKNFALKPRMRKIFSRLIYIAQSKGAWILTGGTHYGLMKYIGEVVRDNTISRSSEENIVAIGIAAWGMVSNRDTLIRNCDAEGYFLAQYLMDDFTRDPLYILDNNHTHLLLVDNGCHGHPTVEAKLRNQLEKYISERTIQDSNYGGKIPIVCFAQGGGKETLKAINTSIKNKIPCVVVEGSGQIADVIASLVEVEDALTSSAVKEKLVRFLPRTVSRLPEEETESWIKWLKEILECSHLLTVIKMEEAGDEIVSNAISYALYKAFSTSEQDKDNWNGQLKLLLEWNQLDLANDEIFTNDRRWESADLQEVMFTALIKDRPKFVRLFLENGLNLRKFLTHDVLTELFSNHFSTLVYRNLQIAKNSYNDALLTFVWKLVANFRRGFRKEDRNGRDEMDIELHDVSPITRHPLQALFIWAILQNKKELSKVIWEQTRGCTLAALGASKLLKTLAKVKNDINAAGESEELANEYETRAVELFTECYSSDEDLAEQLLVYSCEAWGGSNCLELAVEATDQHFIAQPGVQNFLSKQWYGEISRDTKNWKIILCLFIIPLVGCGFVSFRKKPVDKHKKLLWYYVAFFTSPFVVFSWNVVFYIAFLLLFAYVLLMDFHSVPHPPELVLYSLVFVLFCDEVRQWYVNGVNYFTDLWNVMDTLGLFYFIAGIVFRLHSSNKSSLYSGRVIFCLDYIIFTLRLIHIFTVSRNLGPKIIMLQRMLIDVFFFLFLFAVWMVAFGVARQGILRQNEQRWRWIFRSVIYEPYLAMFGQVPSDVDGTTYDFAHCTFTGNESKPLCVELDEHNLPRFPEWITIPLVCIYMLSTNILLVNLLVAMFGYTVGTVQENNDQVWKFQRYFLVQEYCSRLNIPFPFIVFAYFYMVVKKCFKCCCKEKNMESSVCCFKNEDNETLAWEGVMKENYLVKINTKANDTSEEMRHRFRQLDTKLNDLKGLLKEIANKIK
# Excerpt: FIG. 4. Agonist activities of TRPM8 analogs. […] The relative fluorescence (RF) unit on the ordinate represents calcium entry into transfected cells. […] The structures of these compounds are in Table 4.
# The applicant has synthesized and examined a series of p-menthanecarboxamides conjugated to amino acid esters. […] This class of molecules is called N-alkylcarbonyl-amino acid esters. GlyOiPr is a p-menthanecarboxamide conjugate of glycine isopropyl (iPr) ester. It is similar in structure to WS-5, a cooling agent used as a food additive. WS-5 is the p-menthane-glycine ethyl (Et) ester, or GlyOEt. […] These in vitro effects were measured in CHO cells transfected with the hTRPM8 channel. Receptor activity was quantified using a Fluo-8 calcium kit and a Fluorescence Imaging Plate Reader ([…]™).
# [3] = tested on: goblet cells of human nasal epithelium; conditions: Liu et al., 2017; cited from earlier work
# TRPA1 = biological target: T2, TRPA1 (Homo sapiens, UniProt O75762); conditions: Karashima et al., 2007; cited from earlier work
# T2 construct: expressed in transfected cells
# T2 sequence (O75762 whole entry, species assumed): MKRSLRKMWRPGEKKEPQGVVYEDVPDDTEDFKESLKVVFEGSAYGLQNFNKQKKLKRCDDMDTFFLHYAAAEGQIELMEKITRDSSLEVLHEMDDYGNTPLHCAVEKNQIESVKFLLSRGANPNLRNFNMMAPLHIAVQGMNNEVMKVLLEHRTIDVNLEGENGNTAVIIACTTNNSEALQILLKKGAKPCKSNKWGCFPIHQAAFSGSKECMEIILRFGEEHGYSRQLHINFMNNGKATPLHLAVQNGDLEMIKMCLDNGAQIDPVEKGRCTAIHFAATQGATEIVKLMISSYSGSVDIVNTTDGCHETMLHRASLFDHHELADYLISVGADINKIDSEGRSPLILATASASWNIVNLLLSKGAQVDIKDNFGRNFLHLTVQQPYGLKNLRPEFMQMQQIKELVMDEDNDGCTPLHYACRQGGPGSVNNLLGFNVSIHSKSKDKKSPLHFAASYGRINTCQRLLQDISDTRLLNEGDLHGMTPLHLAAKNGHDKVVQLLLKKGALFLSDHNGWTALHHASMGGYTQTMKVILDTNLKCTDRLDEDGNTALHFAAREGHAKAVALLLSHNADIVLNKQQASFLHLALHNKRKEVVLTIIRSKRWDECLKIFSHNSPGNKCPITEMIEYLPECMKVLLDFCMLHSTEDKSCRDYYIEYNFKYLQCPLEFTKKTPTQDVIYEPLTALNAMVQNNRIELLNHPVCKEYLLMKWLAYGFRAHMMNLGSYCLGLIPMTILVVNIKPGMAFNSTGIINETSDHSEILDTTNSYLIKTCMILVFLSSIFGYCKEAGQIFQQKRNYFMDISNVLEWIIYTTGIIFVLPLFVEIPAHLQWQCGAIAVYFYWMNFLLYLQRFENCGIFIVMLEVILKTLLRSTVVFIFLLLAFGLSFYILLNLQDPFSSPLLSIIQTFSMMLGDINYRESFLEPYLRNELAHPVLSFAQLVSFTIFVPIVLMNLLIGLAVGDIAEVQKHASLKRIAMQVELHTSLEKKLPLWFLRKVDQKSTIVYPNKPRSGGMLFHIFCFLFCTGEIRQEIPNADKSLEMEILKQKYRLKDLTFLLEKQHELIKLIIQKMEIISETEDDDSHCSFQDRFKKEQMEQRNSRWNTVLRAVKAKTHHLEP
# [4] = see Table 8, Wei U.S. Pat. No. 8,258,320; cited from earlier work
# ostiomeatal complex [5] = test: Case study 6: WS-12 nebulization for dry mouth of obstructed breathing; assay type: in vivo, human
# Excerpt: As hypersecretion of mucus was not the principal event, it was decided that a long-acting p-menthanecarboxamide, WS-12, might work well for the dry mouth. WS-12 was first discovered by the applicant to be a potent TRPM8 receptor agonist (Reynolds and Polakis, U.S. Pat. No. 7,893,072), and they supplied this reagent for testing and publications [see Bödding et al. (Cell Calcium. 42:618-28, 2007), and Sherkheli (J. Pharm. Pharmaceu. Sci. 13:242-53, 2010)]. WS-12 has weak cooling effects on the skin. WS-12 was later approved as a food additive (FEMA) for comestibles such as chewing gum. WS-12 is available online for about $USD 15 per 100 g. WS-12 was prepared at 10 mg/ml in 1% ethanol and 2% polysorbate 80 suspensions for a 5-see nebulization using the NasoNeb® apparatus in a volunteer subject and administered once before sleep.
# The subject now uses the WS-12 on an occasional as-needed basis. The nasal polyps are still present upon endoscopic examination. The WS-12 chemical structure is ideal for use in obstructed breathing because it has an aryl moiety that increases lipophilicity (higher octanol-water partition coefficient). Lipophilicity increases retention in the nasal mucosa; thus, its action is long-lasting. […] Its actions are more gentle, with a mild coolness on the nasal surfaces. […]
compound,measurement,setting,value
"CCCOC(=O)CNC(=O)[C@@H]1C[C@H](C)CC[C@H]1C(C)C [GlyOnPr, [((1R,2S,5R)-2-isopropyl-5-methyl-cyclohexanecarbonyl)-amino]-acetic acid n-propyl ester]",Chili-Pepper Sauce Test,oral cavity,0
same,Philtrum Skin,"philtrum skin; Table 6, cooling duration, keratinized skin",42 min
same,Philtrum Skin,"philtrum skin; Table 7, Gly esters",42 min
same,Eyelids/Ocular Surface,"ocular margins; Table 6, cooling duration, non-keratinized",54 min
same,Ocular Surface,"ocular margins; Table 7, Gly esters",54 min
same,Relief of stuffiness and breathing,ostiomeatal complex [1],provided relief
same,Sensory effects after delivery into the nasal cavity,nasal cavity,"About the same duration of action as GlyOiPr, but less refreshing."
same,Oropharyngeal Surface,oropharyngeal surface,0
COc1ccc2c(c1)n(CCN)c(=O)n2C(=O)[C@@H]1C[C@H](C)CC[C@H]1C(C)C.Cl [D-2363],Troponin plasma levels,[2],elevated troponin plasma levels
"CC(C)[C@@H]1CC[C@@H](C)C[C@H]1O [l-menthol, (1R,2S,5R)-2-isopropyl-5-methyl-cyclohexanol [(−)-menthol], reference compound]",Activity on TRPM8 transfected cells,hTRPM8 channel,active
same,MUC5AC secretion,[3],stimulates MUC5AC
same,Potency on TRPA1 compared with TRPM8,TRPA1,interacts with TRPA1 at a greater potency than TRPM8
same,Cooling duration in the nasal cavity,nasal cavity,~7 min
same,Sensory effects after delivery into the nasal cavity,nasal cavity,"Strong cool, clear breathing. Eye irritant, causes rhinorrehea"
"COc1ccc(NC(=O)[C@@H]2C[C@H](C)CC[C@H]2C(C)C)cc1 [WS-12, (1R,2S,5R)-2-isopropyl-N-(4-methoxyphenyl)-5-methyl-cyclohexanecarboxamide]",Octanol/water partition coefficient among the p-menthanecarboxamides,[4],highest
same,Effect on dry mouth symptoms,"ostiomeatal complex [5]; WS-12 10 mg/ml in 1% ethanol and 2% polysorbate 80, 5-sec nebulization once before sleep",dry mouth symptoms disappeared after three days of use
same,Effect with manual spraying,ostiomeatal complex [5]; manual sprayer instead of electronically powered nebulizer,does not work well
